The values below come from patent publication US20230020999A1, “ANTI-CD30 ANTIBODY-DRUG CONJUGATES AND THEIR USE FOR THE TREATMENT OF HIV INFECTION” (priority 2019, published 2023).

Non-standard residues stand in square brackets, D forms with d. Residues, ends and D or L forms follow the SMILES beside them. *: point of attachment. Dolaproine = CO[C@@H]([C@@H]1CCCN1)[C@@H](C)C(=O)O; Dil = CC[C@H](C)[C@H](NC)[C@@H](CC(=O)O)OC; X1 = C[C@@H](N*)[C@@H](O)c1ccccc1; NMeV = CN[C@H](C(=O)O)C(C)C

Data set [1] concerns the target CYP3A4 (Homo sapiens, UniProt P08684). Particulars: cited from earlier work.
In data set [2] the target is permeability glycoprotein (Pgp) (Homo sapiens, UniProt P08183). The settings on record: cited from earlier work.
The subject of data set [3] is naïve CD8 T cells. Briefly: Free MMAE titration on activated T cell populations, viable cell counts. It counts as cell-based. Particulars: Naïve CDS; CD3/CD28 beads and IL-2 (10 ng/ml), 4 days; cell counts relative to untreated control. Here is the method: (§1) To evaluate the effect of free MMAE on the various T cell populations, naïve (CD45RA+, CD45RO−) and memory (CD45RA−, CD45RO+) CD4 and CD8 T cells and CD25^hi CD127^lo T regulatory cells were enriched from healthy donor leukopaks and activated with CD3/CD28 beads and IL-2 (10 ng/ml) in round-bottom 96-well tissue culture plates for 4 days with a titration of free monomethyl auristatin E (MMAE). […] Data are represented as cell counts relative to untreated control.

The test system of data set [4] is T regulatory cells (Treg). Described as above. Type of data set: cell-based. Particulars: CD3/CD28 beads and IL-2 (10 ng/ml), 4 days, cell counts relative to untreated control. The protocol: as §1
Data set [5] relates to memory CD4 T cells. The data set is described as above. Type of data set: cell-based. The settings on record: CD3/CD28 beads and IL-2 (10 ng/ml), 4 days, cell counts relative to untreated control. The protocol:
as §1

In data set [6] the test system is memory CD8 T cells. The data set is described as above. It counts as cell-based. The settings on record: Memory CDS; CD3/CD28 beads and IL-2 (10 ng/ml), 4 days; cell counts relative to untreated control. The protocol: as §1
For data set [7], the system named is naïve CD4 T cells. The data set is described as above. The settings on record: CD3/CD28 beads and IL-2 (10 ng/ml), 4 days, cell counts relative to untreated control. It counts as cell-based. The protocol: as §1
The subject of data set [8] is CD30+ cell lines. The settings on record: in vitro; cited from earlier work.
The subject of data set [9] is Hodgkin disease xenograft. The settings on record: SCID mouse xenograft models of Hodgkin disease; cited from earlier work.
In data set [10] the test system is Treg. Description: Effect of BV on activated T cell viability (FACS). It counts as cell-based. The protocol:
(§2) To evaluate the effect of BV on activated T cell viability, naïve, memory, and Treg subsets were driven to proliferate in vitro in the presence of BV or control antibody-drug conjugate (ADC). Briefly, T cell subsets were mixed with CD3/CD28 beads (4:1)+IL-2 10 ng/ml in RPMI 10% FCS and distributed −2.0×10^4 cells/well into a 96-well round-bottom plate. A titration of BV or control IgG-MMAE was added to replicate wells, for a final volume of 200 μl, and plates were incubated at 37° C. for 4 days. On the final day of the assay, cells were stained with Zombie® Aqua Viability Dye and a non-competing monoclonal μCD30-PE (Biolegend) for FACS analysis. […] Cell counts are shown as the percent of untreated control.

Data set [11] deals with memory CD4 T cells. Briefly: Effect of BV on activated T cell viability (FACS). Type of data set: cell-based. Here is the method: as §2
Data set [12] deals with Tregs. The settings on record: subjects with CD30+ lymphomas; cited from earlier work.
Where [13] appears, read: CD3/CD28 beads + IL-2, BV titration, 4 days, n=4, FIG. 1A.

CYP3A4, sequence (P08684 whole entry): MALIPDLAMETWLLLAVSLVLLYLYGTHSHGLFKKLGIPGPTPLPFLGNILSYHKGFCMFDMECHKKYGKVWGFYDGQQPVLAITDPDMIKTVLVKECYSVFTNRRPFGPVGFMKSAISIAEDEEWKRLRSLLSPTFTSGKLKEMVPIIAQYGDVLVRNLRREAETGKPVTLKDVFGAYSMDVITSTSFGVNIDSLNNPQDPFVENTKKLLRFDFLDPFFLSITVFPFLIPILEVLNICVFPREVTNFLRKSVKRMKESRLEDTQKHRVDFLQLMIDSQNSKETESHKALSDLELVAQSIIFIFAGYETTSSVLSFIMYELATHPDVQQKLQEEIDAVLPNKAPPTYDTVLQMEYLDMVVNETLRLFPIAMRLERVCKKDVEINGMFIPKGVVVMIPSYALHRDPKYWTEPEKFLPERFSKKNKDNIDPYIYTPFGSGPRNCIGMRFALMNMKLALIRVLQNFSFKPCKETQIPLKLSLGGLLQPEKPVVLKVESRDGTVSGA
permeability glycoprotein (Pgp), sequence (P08183 whole entry): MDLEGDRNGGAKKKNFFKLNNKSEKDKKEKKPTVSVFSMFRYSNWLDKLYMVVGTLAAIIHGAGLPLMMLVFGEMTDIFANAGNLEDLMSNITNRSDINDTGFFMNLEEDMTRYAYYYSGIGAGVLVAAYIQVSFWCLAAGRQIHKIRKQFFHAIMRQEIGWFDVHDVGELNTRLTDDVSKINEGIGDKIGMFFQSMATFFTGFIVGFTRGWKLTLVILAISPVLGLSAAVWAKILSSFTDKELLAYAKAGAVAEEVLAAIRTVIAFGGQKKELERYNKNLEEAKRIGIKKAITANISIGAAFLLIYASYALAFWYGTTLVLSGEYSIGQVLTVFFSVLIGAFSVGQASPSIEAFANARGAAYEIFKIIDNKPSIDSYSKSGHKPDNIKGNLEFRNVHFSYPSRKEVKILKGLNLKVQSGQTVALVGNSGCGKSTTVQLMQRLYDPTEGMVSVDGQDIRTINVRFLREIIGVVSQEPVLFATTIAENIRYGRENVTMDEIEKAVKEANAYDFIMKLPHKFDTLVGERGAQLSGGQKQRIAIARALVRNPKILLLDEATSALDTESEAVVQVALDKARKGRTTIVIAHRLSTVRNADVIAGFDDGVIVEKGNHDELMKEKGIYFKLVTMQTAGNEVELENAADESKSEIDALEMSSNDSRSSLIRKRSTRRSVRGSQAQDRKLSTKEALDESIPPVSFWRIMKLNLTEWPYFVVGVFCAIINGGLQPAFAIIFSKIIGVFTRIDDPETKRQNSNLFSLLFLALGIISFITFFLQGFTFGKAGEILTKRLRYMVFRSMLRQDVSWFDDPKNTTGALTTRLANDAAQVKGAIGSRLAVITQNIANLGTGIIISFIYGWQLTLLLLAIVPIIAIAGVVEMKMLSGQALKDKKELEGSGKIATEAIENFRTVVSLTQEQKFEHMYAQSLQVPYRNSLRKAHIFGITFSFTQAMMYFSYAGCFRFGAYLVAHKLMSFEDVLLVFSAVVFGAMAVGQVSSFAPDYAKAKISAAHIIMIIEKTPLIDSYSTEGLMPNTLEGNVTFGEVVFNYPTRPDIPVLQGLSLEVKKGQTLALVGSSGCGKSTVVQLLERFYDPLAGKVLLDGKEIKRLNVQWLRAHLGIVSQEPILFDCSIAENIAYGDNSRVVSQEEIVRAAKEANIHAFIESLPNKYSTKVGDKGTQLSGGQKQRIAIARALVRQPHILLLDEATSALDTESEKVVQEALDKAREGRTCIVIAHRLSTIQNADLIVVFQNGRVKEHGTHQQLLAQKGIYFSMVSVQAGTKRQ

The term IC50 denotes the concentration at which inhibition is half-maximal. Higher therefore signals a need for much substance. Turning to `CC[C@H](C)[C@@H]([C@@H](CC(=O)N1CCC[C@H]1[C@H](OC)[C@@H](C)C(=O)N[C@H](C)[C@@H](O)c1ccccc1)OC)N(C)C(=O)[C@@H](NC(=O)[C@@H](NC)C(C)C)C(C)C` [MMAE, monomethyl auristatin E] (H-[NMeV]V[Dil][Dolaproine]-X1), the metabolism entry in data set [1] is reported as “primarily metabolized by CYP3A4”. In [2], the Pgp substrate result is “known Pgp substrate”. The concentration for half-maximal inhibition (IC50) came to 1.96 nM in data set [3]; 0.43 nM in data set [4]; 0.55 nM in data set [5]; 0.77 nM in [6]; 1.13 nM in data set [7].
Consider cAC10, for which the “growth of CD30+ cell lines” value in data set [8] is recorded as “induces growth arrest”. In addition, the antitumor activity result in [9] is given as “pronounced antitumor activity”.

B1: brentuximab vedotin (conjugate)
VH: QIQLQQSGPEVVKPGASVKISCKASGYTFTDYYITWVKQKPGQGLEWIGWIYPGSGNTKYNEKFKGKATLTVDTSSSTAFMQLSSLTSEDTAVYFCANYGNYWFAYWGQGTQVTVSA
VL: DIVLTQSPASLAVSLGQRATISCKASQSVDFDGDSYMNWYQQKPGQPPKVLIYAASNLESGIPARFSGSGSGTDFTLNIHPVEEEDAATYYCQQSNEDPWTFGGGTKLEIK
With B1, the “total viable Treg cell numbers” value in [10] (setting [13]) is on record as “dose-dependent reduction”. Also, the “numbers of viable CD30+ cells” value is reported as “enhanced depletion” in data set [10] (CD30+ Treg, end of 4-day assay, FIG. 1B) and “enhanced depletion” in data set [11] (CD30+ memory CD4 T cells, end of 4-day assay, FIG. 1B). The “total viable memory CD4 T cell numbers” value in [11] (setting [13]) is reported as “dose-dependent reduction”. Moreover, the “change in Tregs” value in data set [12] is “reduction in Tregs”.
